The values that follow come from article PMC3006138, “Fexinidazole – A New Oral Nitroimidazole Drug Candidate Entering Clinical Development for the Treatment of Sleeping Sickness” (PLoS Neglected Tropical Diseases, 2010).

Data set [1] in a line: Rat single-dose IV and oral pharmacokinetics. The class given is in vivo. The following applies: for AUC(0-t): read-out: AUC0-t(last); for half-life: read-out: t1/2,z (converted). The procedure:
METHODS […] Fexinidazole was given as IV and oral administrations to male Sprague Dawley rats according to the following scheme Rat ID Route Dose (mg/kg) Formulation […] IV dose was administered via the tail vein, the oral dose was administered by gastric gavage. 4.2. […] On the day of dosing, approximately 0.3 mL of blood/sampling time were taken from the cannula using heparinized syringes, transferred immediately into tubes (pre-cooled in an ice/water bath) and centrifuged at […] The separated plasma was split into two aliquots, then stored at -80°C until analysis. […] 4.3. Bioanalytical Method Plasma concentrations of Fexinidazole were determined by a LC-MS-MS method. The lower limit of the bioanalytical method was 5.12 ng/mL. […] Details of the bioanalytical method were reported in Appendix 2 and the analytical performance was reported in Appendix 3. 4.4. […] For the calculations, pre-dose concentrations were set equal to C0.033 and equal to zero after IV and oral administrations, respectively. […] regression line. […] Absolute bioavailability was calculated from the ratio of the average oral to IV dose- normalized AUC0-∞ values. […] Plasma concentrations and pharmacokinetic parameters of Fexinidazole were reported to three significant figures. 5. RESULTS Mean ±SD systemic exposure parameters of Fexinidazole after IV and oral administrations of the compound are reported in Table 1. […] This side […] After oral administration, detectable concentrations of Fexinidazole were measured at the […] Mean ±SD maximal plasma concentration of Fexinidazole was 147 ±37 ng/mL, achieved 2 h post dosing. The concentrations of the compound were detectable up to the end of the experiment (8 h). […] Mean ±SD AUC0-∞ was 662 ±106 ng⋅h/mL. […] 6. CONCLUSIONS After both doses, low variability of the pharmacokinetic parameters of Fexinidazole was observed. […] Report Amendment for Study 0327-2007 2. […] METHODS […] The lower limit of the bioanalytical method was 5.00 ng/mL for both compounds. […] Details of the bioanalytical method are reported in Table 1 and the analytical performances of calibration standards are reported in Tables 2-5. 3.2.

Data set [2] in a line: Half-life after oral treatment across species. The class given is in vivo. The following applies: mouse, rat, dog, plasma, mice, rats and dogs.
Where [3] appears, read: Sprague Dawley, plasma, fexinidazole 5 mg/kg IV, male SD rats, read-out: Cmax (C0.033 for parent).
Setting [4] is: male, Sprague Dawley, plasma, fexinidazole 5 mg/kg IV.
Setting [5] is: male, Sprague Dawley, plasma, fexinidazole 10 mg/kg oral.
The mark [6] stands for this setting: male, Sprague Dawley, plasma, fexinidazole 10 mg/kg oral, read-out: Cmax.

Read-outs that look alike come from different tables or passages of the source.

With `Cn1c([N+](=O)[O-])cnc1COc1ccc(S(C)(=O)=O)cc1` [Fexinidazole sulfone], the Cmax in data set [1] (setting [3]) came to 2090 ng/mL; in data set [1] (setting [6]) it was 2660 ng/mL. Moreover, the values for the Tmax in data set [1] (setting [4]) and in data set [1] (setting [5]) were 5.33 h and 6 h, respectively. In addition, the AUC(0-t) in data set [1] (setting [4]) worked out at 9590 ng·h/mL; in data set [1] (setting [5]), 14300 ng·h/mL. The compound also registered a half-life in data set [2] of no more than 24 h.
As to `Cn1c([N+](=O)[O-])cnc1COc1ccc([S+](C)[O-])cc1` (centres unmarked) [Fexinidazole sulfoxide], the Cmax in data set [1] (setting [3]) was determined as 3070 ng/mL; in data set [1] (setting [6]), 3520 ng/mL. In addition, the time of peak concentration (Tmax) in data set [1] (setting [4]) came out at 1 h; in data set [1] (setting [5]), 2 h. For the same compound, the figures for the AUC(0-t) in data set [1] (setting [4]) and in data set [1] (setting [5]) were 9440 ng·h/mL and 16200 ng·h/mL, respectively. The compound further came in with a half-life in data set [2] of 2 to 7 h.
As to `CSc1ccc(OCc2ncc([N+](=O)[O-])n2C)cc1` [Fexinidazole, 1-methyl-2-((p-(methylthio)phenoxy)methyl)-5-nitroimidazole], the Cmax in data set [1] (setting [3]) was 3660 ± 217 ng/mL; in data set [1] (setting [6]), 147 ± 36.6 ng/mL. The compound also had a clearance in data set [1] (male, Sprague Dawley, plasma, 5 mg/kg IV) of 76.2 mL/min/kg. The Vd in data set [1] (male, Sprague Dawley, plasma, 5 mg/kg IV, read-out: Vss) was determined as 4.69 L/kg. The AUC(0-t) in data set [1] (setting [4]) was 1160 ng·h/mL; in data set [1] (setting [5]), 631 ng·h/mL. Moreover, the results for the half-life in data set [1] (setting [4]), in data set [1] (setting [5]) and in data set [2] were 1.71 h, 1.72 h and 1 to 3 h, respectively. Besides, the Tmax in data set [1] (setting [5]) was found to be 2 h. For the same compound, the AUC(0-inf) in data set [1] (male, Sprague Dawley, plasma, iv, 5 mg/kg, fexinidazole 5 mg/kg IV, read-out: AUC0-∞) worked out at 1200 ± 26.5 ng·h/mL; in data set [1] (male, Sprague Dawley, plasma, po, 10 mg/kg, fexinidazole 10 mg/kg oral, read-out: AUC0-∞) it was 662 ± 106 ng·h/mL; in data set [1] (male, Sprague Dawley, plasma, po, 10 mg/kg, oral, normalized to 1 mg/kg, read-out: AUC0-∞, norm), 65.1 ng·h/mL. Further, the bioavailability in data set [1] (male, Sprague Dawley, plasma, oral, 10 mg/kg, oral 10 mg/kg vs IV 5 mg/kg, read-out: Absolute bioavailability F) was 30%. Besides, in data set [1] (oral 10 mg/kg vs IV 5 mg/kg), the “Absolute bioavailability F” value turned out to be 29.7%.

One may read the Cmax as the highest concentration seen after dosing. As a reminder, the Tmax is the time at which the peak concentration occurs. For orientation: bioavailability means the share of a dose that reaches the circulation, judged against a reference dose that is usually intravenous.
